The values that follow come from patent US20080161288A1, “COMPOUNDS” (Pfizer Inc., priority 2006, published 2008).

In test [1] the target is T1, porcine beta-2 adrenoceptor (Sus scrofa, UniProt Q28997).
T1 construct: expressed in transfected cells; host or cells: CHO cells
The test is described as follows: cAMP assay in CHO cells transfected with the porcine beta-2 adrenoceptor. Type of test: cell-based. Particulars: cAMP (DiscoveRx Hit Hunter cAMP II) in CHO cells transfected with porcine beta-2 adrenoceptor, 30 minutes with compound, 0.5 mM IBMX. As for the experimental part: (§1) CHO cells transfected with the bovine or porcine beta-2 adrenceptors were maintained in culture in DMEM/HAMS F12+10% FBS+2 mM glutamine+500 μg/ml geneticin (for the porcine receptor the medium was supplement with 1.5 mM HEPES) at 37° C. with a 5% CO2 atmosphere.
(§2) Cells were plated into 96 well viewplates in medium and incubated overnight at 37° C. with a 5% CO2 atmosphere. The cells were pre-incubated with 0.5 mM IBMX in PBS for 30 minutes prior to incubation with increasing concentrations of experimental compound (5×10^−12 to 10^−5 M) for 30 minutes at 37° C. with a 5% CO2 atmosphere. At the end of the incubation time the compound was removed and the cells assayed for cAMP using the DiscoveRx Hit Hunter cAMP II™ assay kit.
(§3) Duplicate samples were run for each experimental compound and the data generated was analysed using EC50 analysis software in Graphpad Prism.
For orientation: Cyclic AMP is a second messenger, typically raised through Gs and lowered through Gi signalling.

The target in test [2] is T2, bovine beta-2 adrenoceptor (Bos taurus, UniProt Q28044).
T2 construct: expressed in transfected cells; host or cells: CHO cells
The test is described as follows: cAMP assay in CHO cells transfected with the bovine beta-2 adrenoceptor. Type of test: cell-based. The following applies: cAMP (DiscoveRx Hit Hunter cAMP II) in CHO cells transfected with bovine beta-2 adrenoceptor, 30 minutes with compound, 0.5 mM IBMX. How it is done: as §1, §2, §3

T2 sequence (Q28044 whole entry): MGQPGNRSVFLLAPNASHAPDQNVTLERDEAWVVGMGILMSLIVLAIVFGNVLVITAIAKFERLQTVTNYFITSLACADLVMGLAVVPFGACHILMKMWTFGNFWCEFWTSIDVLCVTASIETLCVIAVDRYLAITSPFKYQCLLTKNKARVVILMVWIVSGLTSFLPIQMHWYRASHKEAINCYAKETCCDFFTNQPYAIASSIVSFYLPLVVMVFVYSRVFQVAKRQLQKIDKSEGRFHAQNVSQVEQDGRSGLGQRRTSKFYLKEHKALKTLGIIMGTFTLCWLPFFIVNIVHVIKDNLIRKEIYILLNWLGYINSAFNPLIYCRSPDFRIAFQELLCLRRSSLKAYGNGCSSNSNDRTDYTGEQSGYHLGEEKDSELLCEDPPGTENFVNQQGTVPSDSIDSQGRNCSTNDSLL
T1 sequence (Q28997 whole entry): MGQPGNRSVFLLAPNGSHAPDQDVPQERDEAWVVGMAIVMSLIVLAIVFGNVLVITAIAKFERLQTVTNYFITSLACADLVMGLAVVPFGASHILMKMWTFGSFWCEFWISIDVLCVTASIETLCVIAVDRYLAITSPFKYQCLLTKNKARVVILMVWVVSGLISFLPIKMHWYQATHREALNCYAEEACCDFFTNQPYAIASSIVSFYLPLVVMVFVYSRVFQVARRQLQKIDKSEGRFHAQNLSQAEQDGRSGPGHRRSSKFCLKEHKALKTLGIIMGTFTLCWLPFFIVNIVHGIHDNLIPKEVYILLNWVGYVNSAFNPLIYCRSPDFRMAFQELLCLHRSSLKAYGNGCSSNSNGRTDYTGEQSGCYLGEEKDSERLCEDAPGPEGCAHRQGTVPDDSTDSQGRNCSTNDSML

Consider `CC(CCc1ccccc1OC(C)C)NC1CCn2c(=O)[nH]c3cccc(c32)C1O` (stereo not shown) [Example 35, 7-Hydroxy-6-{[3-(2-isopropoxyphenyl)-1-methylpropyl]amino}-4,5,6,7-tetrahydroimidazo[4,5,1-jk][1]benzazepin-2(1H)-one], for which the values for the EC50 in test [1] and in test [2] were 1.8 nM and 7.3 nM, respectively.
As to `CC(CC(C)(C)c1ccccc1)N[C@@H]1CCn2c(=O)[nH]c3cccc(c32)[C@H]1O` (single isomer, unassigned) [Example 14b, 6-[(1,3-Dimethyl-3-phenylbutyl)amino]-7-hydroxy-4,5,6,7-tetrahydroimidazo[4,5,1-jk][1]benzazepin-2(1H)-one], the results for the EC50 in test [1] and in test [2] were 4.2 nM and 3.4 nM, respectively.
On to `CC(CCc1cc(F)cc(F)c1O)N[C@@H]1CCn2c(=O)[nH]c3cccc(c32)[C@H]1O` (mixture of isomers) [Example 10b, 6-{[3-(3,5-Difluoro-2-hydroxyphenyl)-1-methylpropyl]amino}-7-hydroxy-4,5,6,7-tetrahydroimidazo[4,5,1-jk][1]benzazepin-2(1H)-one], for which the figures for the EC50 in test [1] and in test [2] were 1.7 nM and 0.8 nM, respectively.
With `CC(CCc1ccc(C(=O)NC2CC2)cc1)NC1CCn2c(=O)[nH]c3cccc(c32)C1O` (single isomer, unassigned) [Example 64, N-Cyclopropyl-4-[3-{[7-hydroxy-2-oxo-1,2,4,5,6,7-hexahydroimidazo[4,5,1-jk][1]benzazepin-6-yl]amino}butyl]benzamide], the EC50 turned out to be 42.9 nM in test [1] and 46.4 nM in test [2].
In the case of `CC(CCc1ccc2c(c1)CCO2)N[C@@H]1CCn2c(=O)[nH]c3cccc(c32)[C@H]1O` (single isomer, unassigned) [Example 3a, 6-{[3-(2,3-Dihydro-1-benzofuran-5-yl)-1-methylpropyl]amino}-7-hydroxy-4,5,6,7-tetrahydroimidazo[4,5,1-jk][1]benzazepin-2(1H)-one], the figures for the EC50 in test [1] and in test [2] were 8.1 nM and 34.3 nM, respectively.
In the case of `CC(CCc1cc(Cl)ccc1O)N[C@@H]1CCn2c(=O)[nH]c3cccc(c32)[C@H]1O` (single isomer, unassigned) [Example 19a, 6-{[3(5-Chloro-2-hydroxyphenyl)-1-methylpropyl]amino}-7-hydroxy-4,5,6,7-tetrahydroimidazo[4,5,1-jk][1]benzazepin-2(1H)-one], the EC50 worked out at 0.9 nM in test [1] and 0.6 nM in test [2].
The like results for `CC(CCc1ccc(O)cc1)N[C@@H]1CCn2c(=O)[nH]c3cccc(c32)[C@H]1O` (single isomer, unassigned) [Example 2a, 7-Hydroxy-6-{[3-(4-hydroxyphenyl)-1-methylpropyl]amino}-4,5,6,7-tetrahydroimidazo[4,5,1-jk][1]benzazepin-2(1H)-on] were, in that order, 6.1 nM and 13.4 nM.
In the case of `C[C@H](CCc1ccccc1O)N[C@@H]1CCn2c(=O)[nH]c3cccc(c32)[C@H]1O` [Example 6f, 7-Hydroxy-6-{[3-(2-hydroxyphenyl)-1-methylpropyl]amino}-4,5,6,7-tetrahydroimidazo[4,5,1-jk][1]benzazepin-2(1H)-one], the EC50 came to 1.9 nM in test [1] and 1 nM in test [2].
For the compound `CC(CCc1ccc(O)c(C(F)(F)F)c1)NC1CCn2c(=O)[nH]c3cccc(c32)C1O` (single isomer, unassigned) [Example 60, 7-Hydroxy-6-({3-[4-hydroxy-3-(trifluoromethyl)phenyl]-1-methylpropyl}amino)-4,5,6,7-tetrahydroimidazo[4,5,1-jk][1]benzazepin-2(1H)-one], the figures for the EC50 in test [1] and in test [2] were 15.9 nM and 10.5 nM, respectively.
The like results for `CC(CCc1cc(F)c(F)cc1O)N[C@@H]1CCn2c(=O)[nH]c3cccc(c32)[C@H]1O` (mixture of isomers) [Example 11a, 6-{[3-(4,5-Difluoro-2-hydroxyphenyl)-1-methylpropyl]amino}-7-hydroxy-4,5,6,7-tetrahydroimidazo[4,5,1-jk][1]benzazepin-2(1H)-one] were, in that order, 1.15 nM and 1.21 nM.
For the compound `COc1cccc(CCC(C)N[C@@H]2CCn3c(=O)[nH]c4cccc(c43)[C@H]2O)c1O` (single isomer, unassigned) [Example 8a, 7-hydroxy-6-{[3-(2-hydroxy-3-methoxyphenyl)-1-methylpropyl]amino}-4,5,6,7-tetrahydroimidazo[4,5,1-jk][1]benzazepin-2(1H)-one], the EC50 in test [1] worked out at 172 nM; in test [2], 200 nM.
Consider `CC(CCc1cc(C(F)(F)F)ccc1O)N[C@@H]1CCn2c(=O)[nH]c3cccc(c32)[C@H]1O` (mixture of isomers) [Example 31, 7-Hydroxy-6-({3-[2-hydroxy-5-(trifluoromethyl)phenyl]-1-methylpropyl}amino)-4,5,6,7-tetrahydroimidazo[4,5,1-jk][1]benzazepin-2(1H)-one], for which the figures for the EC50 in test [1] and in test [2] were 8.1 nM and 27.2 nM, respectively.
Regarding `CC(CCc1ccc2c(c1)CCO2)N[C@@H]1CCn2c(=O)[nH]c3cccc(c32)[C@H]1O` (single isomer, unassigned) [Example 3c, 6-{[3-(2,3-Dihydro-1-benzofuran-5-yl)-1-methylpropyl]amino}-7-hydroxy-4,5,6,7-tetrahydroimidazo[4,5,1-jk][1]benzazepin-2(1H)-one], the figures for the EC50 in test [1] and in test [2] were 5.6 nM and 27.1 nM, respectively.
The like results for `CC(CCc1ccc(OCC2CC2)cc1)N[C@@H]1CCn2c(=O)[nH]c3cccc(c32)[C@H]1O` (mixture of isomers) [Example 1c, 6-({3-[4-(Cyclopropylmethoxy)phenyl]-1-methylpropyl}amino)-7-hydroxy-4,5,6,7-tetrahydroimidazo[4,5,1-jk][1]benzazepin-2(1H)-one] were, in that order, 4.8 nM and 12.2 nM.
Turning to `CC(CCc1cccc(C(N)=O)c1)NC1CCn2c(=O)[nH]c3cccc(c32)C1O` (single isomer, unassigned) [Example 66, 3-[3-{[7-Hydroxy-2-oxo-1,2,4,5,6,7-hexahydroimidazo[4,5,1-jk][1]benzazepin-6-yl]amino}butyl]benzamide], the EC50 in test [1] was determined as 141 nM; in test [2] it was 137 nM.
`CC(CCc1ccc(C(=O)O)cc1)NC1CCn2c(=O)[nH]c3cccc(c32)C1O` (single isomer, unassigned) [Example 68, 4-[3-{[7-Hydroxy-2-oxo-1,2,4,5,6,7-hexahydroimidazo[4,5,1-jk][1]benzazepin-6-yl]amino}butyl]benzoic acid]: the EC50 came out at 128 nM in test [1] and 198 nM in test [2].
On the same counts, the results for `CC(CCc1ccccc1NC(=O)C(F)(F)F)N[C@@H]1CCn2c(=O)[nH]c3cccc(c32)[C@H]1O` (single isomer, unassigned) [Example 51, 2,2,2-Trifluoro-N-{2-[3-{[7-hydroxy-2-oxo-1,2,4,5,6,7-hexahydroimidazo[4,5,1-jk][1]benzazepin-6-yl]amino}butyl]phenyl}acetamide] are 11 nM and 3.6 nM.
The like results for `CC(=O)Nc1ccccc1CCC(C)NC1CCn2c(=O)[nH]c3cccc(c32)C1O` (single isomer, unassigned) [Example 63, N-{2-[3-{[7-Hydroxy-2-oxo-1,2,4,5,6,7-hexahydroimidazo[4,5,1-jk][1]benzazepin-6-yl]amino}butyl]phenyl}acetamide] were, in that order, 40.8 nM and 39.2 nM.
On the same counts, the results for `COC(=O)c1ccc(CC[C@@H](C)N[C@@H]2CCn3c(=O)[nH]c4cccc(c43)[C@H]2O)cc1` (single isomer, unassigned) [Example 70, Methyl 4-[3-{[7-hydroxy-2-oxo-1,2,4,5,6,7-hexahydroimidazo[4,5,1-jk][1]benzazepin-6-yl]amino}butyl]benzoate] are 6.2 nM and 8.2 nM.
In the case of `CC(CCc1ccc2c(c1)OCO2)NC1CCn2c(=O)[nH]c3cccc(c32)C1O` (stereo not shown) [Example 12, 6-{[3-(1,3-Benzodioxol-5-yl)-1-methylpropyl]amino}-7-hydroxy-4,5,6,7-tetrahydroimidazo[4,5,1-jk][1]benzazepin-2(1H)-one], the figures for the EC50 in test [1] and in test [2] were 11.7 nM and 23.1 nM, respectively.
Regarding `CC(/C=C/c1ccccc1F)N[C@@H]1CCn2c(=O)[nH]c3cccc(c32)[C@H]1O` (single isomer, unassigned) [Example 40a, 6-{[3-(2-Fluorophenyl)-1-methylprop-2-en-1-yl]amino}-7-hydroxy-4,5,6,7-tetrahydroimidazo[4,5,1-jk][1]benzazepin-2(1H)-one], the EC50 was found to be 65.1 nM in test [1] and 242 nM in test [2].
`CC(CCc1cc(F)cc(Cl)c1O)N[C@@H]1CCn2c(=O)[nH]c3cccc(c32)[C@H]1O` (mixture of isomers) [Example 27, 6-{[3-(3-Chloro-5-fluoro-2-hydroxyphenyl)-1-methylpropyl]amino}-7-hydroxy-4,5,6,7-tetrahydroimidazo[4,5,1-jk][1]benzazepin-2(1H)-one]: the EC50 in test [1] came out at 2.2 nM; in test [2], 0.6 nM.
As for `CC(CCc1ccc(O)cc1)N[C@@H]1CCn2c(=O)[nH]c3cccc(c32)[C@H]1O` (single isomer, unassigned) [Example 2c, 7-Hydroxy-6-{[3-(4-hydroxyphenyl)-1-methylpropyl]amino}-4,5,6,7-tetrahydroimidazo[4,5,1-jk][1]benzazepin-2(1H)-on], the EC50 in test [1] was found to be 2.9 nM; in test [2], 13.1 nM.

Usually EC50 stands for the midpoint of the concentration-response curve.
